The test system of assay [1] is primary cultures of rat cerebellar granule cells. The experiment in a line: Glutamate-induced excitotoxic cell death, fluorescein assay. It is filed as cell-based. The method, then:
Primary cultures of cerebellar granule cells were prepared from 6- to 8-day old Sprague-Dawley rats. A description of this procedure can be found in Iorio, K. R., et al., “CHRONIC EXPOSURE OF CEREBELLAR GRANULE CELLS TO ETHANOL RESULTS IN INCREASED N-METHYL-D-ASPARTATE RECEPTOR FUNCTION,” Mol. Pharmacol., 41 1142–1148 (1992), the relevant disclosures of which are incorporated herein by reference. The cultures were maintained in plates containing 24 wells of 1 ml each. Culture density was about 1.5×10^6 cells/ml. Cell viability was assayed after 7–8 days in culture by the production of fluorescein, formed from fluorescein diacetate by esterases present in living cells. […]
Cells were washed with Mg^2+-free Locke's buffer, and then exposed to glutamate alone or glutamate in the presence of 10, 30, or 100 μM DCUK-OMe at 25° C. for 30 minutes. […] For each study, the fluorescence value of a control culture (i.e., not exposed to glutamate) was set to 35,000 fluorescence units, and fluorescence values in all other cultures determined using the same spectrofluorometric settings were normalized to that value. […] The data are then expressed as the percent cell death relative to the control cultures.

Assay [2] addresses α2-noradrenergic receptors. The experiment in a line: [3H]rauwolscine binding, rat cortex crude membranes. The settings on record: crude P1 membranes. The method, then: Rat cortices were homogenized in 20 volumes of ice-cold HEPES-KOH buffer (20 mM, pH 7.4) and twice centrifuged at 50,000 g for 20 min with an intermediate suspension in fresh buffer. The final pellet was stored at −20° C. in 4 volumes of buffer. The binding of [^3H]rauwolscine was performed in a 0.5 ml volume using 250–300 μg tissue and 1 nM [^3H]rauwolscine in 20 mM HEPES-KOH buffer (pH 7.4 at 23° C.). Non-specific binding was defined by use of 100 μM norepinephrine.

Assay [3] deals with T1, polyamine binding site on the NMDA receptor (Rattus norvegicus, UniProt P35439+Q00960).
T1 construct: from tissue; host or cells: rat cortical membranes
T1 sequence (Q00960 27-1482, other chains not shown): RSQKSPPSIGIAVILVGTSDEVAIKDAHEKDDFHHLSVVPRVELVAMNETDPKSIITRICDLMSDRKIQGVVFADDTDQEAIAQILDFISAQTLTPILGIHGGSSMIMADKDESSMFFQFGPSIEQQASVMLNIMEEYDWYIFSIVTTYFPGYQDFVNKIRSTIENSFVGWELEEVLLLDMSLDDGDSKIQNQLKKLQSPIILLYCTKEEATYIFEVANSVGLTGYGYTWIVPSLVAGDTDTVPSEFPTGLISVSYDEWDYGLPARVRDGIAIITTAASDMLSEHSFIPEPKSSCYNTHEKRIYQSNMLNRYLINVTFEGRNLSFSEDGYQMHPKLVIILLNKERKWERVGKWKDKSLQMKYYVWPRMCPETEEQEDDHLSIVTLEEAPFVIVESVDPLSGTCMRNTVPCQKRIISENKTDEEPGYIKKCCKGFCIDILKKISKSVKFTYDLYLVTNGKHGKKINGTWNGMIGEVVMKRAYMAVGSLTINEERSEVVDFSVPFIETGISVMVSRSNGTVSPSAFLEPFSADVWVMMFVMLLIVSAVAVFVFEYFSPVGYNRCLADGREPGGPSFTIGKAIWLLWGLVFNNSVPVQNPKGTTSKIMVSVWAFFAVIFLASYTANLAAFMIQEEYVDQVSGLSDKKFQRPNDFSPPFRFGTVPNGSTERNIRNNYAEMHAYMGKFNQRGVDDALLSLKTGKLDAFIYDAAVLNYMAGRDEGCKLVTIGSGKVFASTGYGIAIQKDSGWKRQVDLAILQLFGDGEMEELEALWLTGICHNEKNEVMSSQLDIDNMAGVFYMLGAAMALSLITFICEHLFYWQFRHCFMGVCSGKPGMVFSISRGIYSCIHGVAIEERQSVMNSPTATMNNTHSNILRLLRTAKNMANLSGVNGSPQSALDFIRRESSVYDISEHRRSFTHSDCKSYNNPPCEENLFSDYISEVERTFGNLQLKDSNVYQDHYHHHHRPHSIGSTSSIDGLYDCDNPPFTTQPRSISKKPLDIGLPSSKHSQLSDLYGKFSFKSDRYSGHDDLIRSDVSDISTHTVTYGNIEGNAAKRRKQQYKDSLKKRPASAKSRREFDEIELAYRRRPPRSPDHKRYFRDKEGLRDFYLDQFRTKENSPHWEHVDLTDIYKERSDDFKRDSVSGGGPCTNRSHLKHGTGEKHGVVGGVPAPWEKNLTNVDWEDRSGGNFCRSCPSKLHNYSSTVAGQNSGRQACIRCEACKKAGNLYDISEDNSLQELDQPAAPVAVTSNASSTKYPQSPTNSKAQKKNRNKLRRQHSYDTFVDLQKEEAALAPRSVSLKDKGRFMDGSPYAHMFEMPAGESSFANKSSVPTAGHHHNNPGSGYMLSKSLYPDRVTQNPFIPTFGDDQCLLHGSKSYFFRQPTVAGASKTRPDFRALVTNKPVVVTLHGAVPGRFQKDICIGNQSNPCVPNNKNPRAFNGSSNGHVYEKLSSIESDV
The experiment in a line: [3H]ifenprodil binding, rat cortical membranes. The settings on record: 5–200 μM DCUKA tested.

The values that follow come from US6962930B1, “Compounds, compositions and method suitable for amelioration of withdrawal syndromes and withdrawal-induced brain damage” (Lohocla Research Corporation, priority 1997, dated 2005).

As to `COC(=O)c1cc(NC(=O)N(c2ccccc2)c2ccccc2)c2c(Cl)cc(Cl)cc2n1` [DCUK-OMe, (N,N-diphenyl)-4-ureido-5,7-dichloro-2-carboxy-quinoline methyl ester], the “protection from glutamate-induced cell death” value in assay [1] (100 μM) is on record as “complete protection”. In addition, in assay [1] (10, 30 or 100 μM, 30 minutes with glutamate), the “effect on glutamate-induced cell death” value was “can block glutamate-induced cell death in a concentration-dependent manner”.
Usually IC50 stands for the concentration that inhibits the measured activity by half. Read a high IC50 as lower potency. In the case of `O=C(O)c1cc(NC(=O)N(c2ccccc2)c2ccccc2)c2c(Cl)cc(Cl)cc2n1` [DCUKA, (N,N-diphenyl)-4-ureido-5,7-dichloro-2-carboxy-quinoline], the IC50 in assay [2] and in assay [3] was more than 200 µM each time.
